In publication PMC7284374 (Pharmaceutics, 2020):
Where a name gives a salt, the structure may show the parent alone. Read-outs that look alike come from different tables or passages of the source. Each block holds one molecule with its values, some of them ahead of it.

Key:
[1] = in vivo; details: rat, plasma, iv, 30 mg/kg
[2] = cited from earlier work
[3] = in vivo; details: rat, plasma, po, 30 mg/kg
[4] = in vivo; details: rat
[5] = 10 µM metformin
[6] = 10 µM metformin; remark: listed apart in the source
[7] = Oral pharmacokinetics of verapamil and norverapamil with and without metformin in rats; details: for CL renal: plasma and urine, CLR; for half-life: Terminal half-life; for GI24 h: gastrointestinal tract at 24 h; for Ae0–24 h: urine up to 24 h
[8] = Intravenous pharmacokinetics of verapamil and norverapamil with and without metformin in rats; details: for CL renal: plasma and urine, CLR; for half-life: Terminal half-life; for GI24 h: gastrointestinal tract at 24 h; for Ae0–24 h: urine up to 24 h
[9] = rats, intravenous administration of both drugs together
[10] = rats, oral administration of both drugs together
[11] = rat, plasma, po, 20 mg/kg, rats, oral verapamil 20 mg/kg, with metformin 30 mg/kg
[12] = rat, plasma, po, 20 mg/kg, rats, oral verapamil 20 mg/kg, without metformin
[13] = rats, oral verapamil 20 mg/kg, with metformin 30 mg/kg
[14] = rats, oral verapamil 20 mg/kg, without metformin
[15] = rat, plasma, iv, 20 mg/kg, rats, iv verapamil 20 mg/kg, with metformin 30 mg/kg
[16] = rat, plasma, iv, 20 mg/kg, rats, iv verapamil 20 mg/kg, without metformin
[17] = rats, iv verapamil 20 mg/kg, with metformin 30 mg/kg
[18] = rats, iv verapamil 20 mg/kg, without metformin

Compound: CN(C)C(=N)N=C(N)N [metformin, Metformin hydrochloride]
- AUC [1]: 26500 ng·h/mL
- MRT [1]: 21.4 min
- Vd [1]: 0.349 ± 0.128 L/kg
- renal excretion of metformin (OCT2-mediated) [2]: ~ 70 % of the metformin dose
- AUC [3]: 7870 ng·h/mL
- Cmax [3]: 2000 ± 328 ng/mL
- concentration at 0.5 h [4]: 2910 ± 894 ng/mL
- effect of metformin on verapamil metabolism [5]: did not affect verapamil metabolism
- effect of metformin on verapamil metabolism [6]: did not affect verapamil metabolism

- CL renal ([7]; rat, po, 20 mg/kg, rats, oral verapamil 20 mg/kg, with metformin 30 mg/kg): 0.562 ± 0.445 mL/min/kg
- CL renal ([7]; rat, po, 20 mg/kg, rats, oral verapamil 20 mg/kg, without metformin): 0.336 ± 0.107 mL/min/kg
- Tmax ([7]; rat, plasma, po, 20 mg/kg): 45 min
- AUC [7, 11]: 898 ng·h/mL
- AUC [7, 12]: 1140 ng·h/mL
- Cmax [7, 11]: 273 ± 123 ng/mL
- Cmax [7, 12]: 267 ± 141 ng/mL
- half-life [7, 11]: 117 ± 44.5 min
- half-life [7, 12]: 168 ± 73.2 min
- GI24 h [7, 13]: 0.0782 ± 0.0514 % of dose
- Tmax ([7]; rats, oral verapamil 20 mg/kg, with metformin 30 mg/kg, median (range)): 45 (15–105) min
- Ae0–24 h [7, 13]: 0.113 ± 0.0522 % of dose
- GI24 h [7, 14]: 0.0870 ± 0.0665 % of dose
- Ae0–24 h [7, 14]: 0.104 ± 0.0567 % of dose
- CL renal ([8]; rat, iv, 20 mg/kg, rats, iv verapamil 20 mg/kg, with metformin 30 mg/kg): 3.76 ± 3.21 mL/h/kg
- CL renal ([8]; rat, iv, 20 mg/kg, rats, iv verapamil 20 mg/kg, without metformin): 6.54 ± 6.12 mL/h/kg
- Tmax ([8]; rat, plasma, iv, 20 mg/kg): 1 h
- AUC [8, 15]: 3320 ng·h/mL
- AUC [8, 16]: 3130 ng·h/mL
- Cmax [8, 15]: 1090 ± 308 ng/mL
- Cmax [8, 16]: 1240 ± 386 ng/mL
- half-life [8, 15]: 63.3 ± 15.2 min
- half-life [8, 16]: 50.8 ± 10.2 min
- GI24 h [8, 17]: 0.126 ± 0.0927 % of dose
- Tmax ([8]; rats, iv verapamil 20 mg/kg, with metformin 30 mg/kg, median (range)): 60 (30−90) min
- Ae0–24 h [8, 17]: 0.0585 ± 0.0453 % of dose
- GI24 h [8, 18]: 0.146 ± 0.0841 % of dose
- Ae0–24 h [8, 18]: 0.0872 ± 0.0691 % of dose
Compound: COc1ccc(CCNCCCC(C#N)(c2ccc(OC)c(OC)c2)C(C)C)cc1OC (stereo not drawn) [norverapamil]

Compound: COc1ccc(CCN(C)CCCC(C#N)(c2ccc(OC)c(OC)c2)C(C)C)cc1OC (stereo not drawn) [verapamil, Verapamil hydrochloride]
- effect of verapamil on the metformin concentration in the liver [9]: did not cause any change
- effect of verapamil on the metformin concentration in the liver [10]: did not cause any change
